Laboratory results as given in patent US20140271734A1, “BILE ACID RECYCLING INHIBITORS FOR TREATMENT OF BARRETT'S ESOPHAGUS AND GASTROESOPHAGEAL REFLUX DISEASE” (LUMENA PHARMACEUTICALS, INC., priority 2013, published 2014).
Like-named read-outs stand apart in the source and are kept apart here. Marks after values point to notes of the source that are not given here.

Legend:
[1] = Toxicokinetics of LUM001 free form, 13-week oral gavage toxicity study in rats; type: in vivo; settings: for AUC(0-t) / Cmax / Tmax: rat, plasma, oral; for AUC(0-t): read-out: AUC(0-24 h)
Method: Charles River CD IGS rats were assigned to treatment groups (9sex/toxicokinetic group) and were administered daily doses of 0, 5, 30, 75, and 150 mg/kg (males) or 0, 5, 30, 150, and 500 mg/kg (females). LUM001 was administered by once daily oral gavage in distilled water and fresh dosing solutions were prepared weekly. All animals were dosed with 10 mL/kg/day based on the most recently determined body weights. On Day 1 and during Week 12, approximately 1 mL of venous blood was collected in heparinized tubes from the retro-orbital venous plexus. Animals were anesthetized with CO2-O2 and blood samples were collected at 1, 2, 3, 5, 8, and 24 hours post-dose. Survival permitting, the first 3 animals/sex dose group were bled at 1 and 5 hours post-dose, the second 3 animals/sex/dose group were bled at 2 and 8 hours post-dose, and the last 3 animals/sex/dose group were bled at 3 and 24 hours post-dose. Blood collection tubes were kept on ice during the collection period after which they were centrifuged and the plasma was harvested within approximately 60 minutes of blood collection. Plasma samples were stored at approximately −20° C. or lower until analyzed.
The concentration of LUM001 free form in plasma were determined using an LCMSMS method. The assay sensitivity was 4.75 ng/mL. Means and standard errors of the means (SEM) were calculated for plasma concentrations at each time point. Mean values are significant to three figures and SEM values are significant to the same decimal place as the corresponding mean. Concentration values less than the assay sensitivity (4.75 ng LUM001 free form/mL) were reported as zero. The observed peak plasma concentrations (Cmax) of LUM001 free form, time to reach peak plasma concentration (Tmax) and areas under the plasma concentration-time curve (AUC0-24) were calculated by the TOXAUC computer program (1). For calculation purposes the 0 hr plasma concentrations were set to zero on Day 1 and to the concentrations at 24 hr post dose on Day 78. The TK parameters were calculated from mean data for each group of rats. The bioavailability (% BA) of LUM001 after oral administration of LUM001 was calculated according to the equation below:
% BA=[AUC oral (0-8)/AUC IV(0-8)/Dose oral/Dose IV]×100

[2] = test system: serum total bile acid (SBA); test: Time to onset of activity of LUM001 on postprandial serum bile acids in dogs; type: in vivo, beagle dogs; settings: for Serum bile acids, mean: fed at 0 min
Method: LUM001 was dissolved in water at concentrations that required the administration of 0.2 ml/kg of solution. Solutions were placed into gelatin capsules, Torpac Inc., size 13 Batch 594, East Hanover N.J., and administered orally.
Male beagle dogs were obtained from Covance Research Products, Cumberland Va. or Marshall Farms USA, Inc., North Rose N.Y. A total of 20 dogs, 1 to 5 years old, 6.8 to 15.6 kg body weight, were used in these experiments. The dogs were conditioned to a 12 hour light/dark cycle and maintained on a feeding restriction of 1 hour per day access to food (Richman Standard Certified Canine Diet #5007, PMI Nutrition, Inc., St. Louis Mo.) from 7 to 8 AM. They were trained to eat a special meal promptly within 20 minutes when presented (1 can. 397 g, Evanger's 100% Beef for Dogs, Evanger's Dog and Cat Food Co., Inc., Wheeling Ill., mixed with 50 g of sharp cheddar cheese.).
SBA was measured by an enzymatic assay. SBA values are expressed as μg of total bile acids/ml of serum.
To estimate the details of this plateau, 6 dogs were given a test meal and blood samples for SBA measurement were collected at −30, 0, 30, 60, 65, 70, 80, 90, 120, 180, 240, 360, 480, 720, 1410 and 1440 minutes from the time of feeding. Any remaining food was removed 20 min after it was first presented to the dogs. To establish a method for extending the elevated plateau of SBA, 6 dogs were given the meal at 0 hr and an additional ½ size meal again 4 hr after their first meal. Blood samples were taken at 0, 1, 2, 3, 4, 4.5, 6, 7 and 8 hr. The curves for SBA level vs time obtained in these experiments were used as references for determining blood sampling times in experiments with LUM001. Wherever possible, experimental design permitting, in experiments with test compound, each dog served as its own simultaneous control, and the mean 1 hr SBA value served as the reference to which all other mean values were compared.
LUM001 was administered at 0, 0.01, 0.05, 0.2 and 1 mg/kg, p.o. to dogs, n=6, 1 hr after feeding the standard experimental meal. Blood samples for SBA measurement were taken at −30, 0, 30, 60, 65, 70, 80, 90, 120 and 180 minutes from the time of feeding. Each dog served as its own control, and mean SBA levels were compared to the mean SBA level at 60 minutes.

[3] = both sexes, CD IGS, Day 1, 150 mg/kg, Comb
[4] = both sexes, Charles River CD IGS, Day 78, 30.0 mg/kg, Comb
[5] = both sexes, Charles River CD IGS, Day 78, 150 mg/kg, Comb
[6] = female, CD IGS, Day 1, 150 mg/kg, F
[7] = female, CD IGS, Day 1, 500 mg/kg, F
[8] = female, Charles River CD IGS, Day 78, 30.0 mg/kg, F
[9] = female, Charles River CD IGS, Day 78, 150 mg/kg, F
[10] = female, Charles River CD IGS, Day 78, 500 mg/kg, F
[11] = male, CD IGS, Day 1, 30.0 mg/kg, M
[12] = male, CD IGS, Day 1, 75.0 mg/kg, M
[13] = male, CD IGS, Day 1, 150 mg/kg, M
[14] = male, Charles River CD IGS, Day 78, 5.0 mg/kg, M
[15] = male, Charles River CD IGS, Day 78, 30.0 mg/kg, M
[16] = male, Charles River CD IGS, Day 78, 75.0 mg/kg, M
[17] = male, Charles River CD IGS, Day 78, 150 mg/kg, M

Which results are given for `CCCCC1(CCCC)CS(=O)(=O)c2ccc(N(C)C)cc2[C@@H](c2ccc(OCc3ccc(C[N+]45CCN(CC4)CC5)cc3)cc2)[C@H]1O` [LUM001]?
BA ([1]; Day 1, 5.0 mg/kg, F): <0.1%; BA ([1]; Day 1, 5.0 mg/kg, M): <0.1%; BA ([1]; Day 1, 30.0 mg/kg, F): <0.1%; BA ([1]; Day 1, 75.0 mg/kg, M): <0.1%; BA ([1]; Day 1, 150 mg/kg, Comb): <0.1%; BA ([1]; Day 1, 500 mg/kg, F): <0.1%; BA ([1]; Day 78, 5.0 mg/kg, F): <0.1%; BA ([1]; Day 78, 30.0 mg/kg, Comb): <0.1%; BA ([1]; Day 78, 75.0 mg/kg, M): <0.1%; BA ([1]; Day 78, 150 mg/kg, Comb): <0.1%; BA ([1]; Day 78, 500 mg/kg, F): <0.1%; AUC(0-t) ([1]; both sexes, CD IGS, 150 mg/kg, Day 1, 150 mg/kg, Comb): 101 ng·h/mL; Cmax [1, 3]: 37.3 ng/mL; Tmax [1, 3]: 2 h; AUC(0-t) ([1]; both sexes, Charles River CD IGS, 30 mg/kg, Day 78, 30.0 mg/kg, Comb): 11.7 ng·h/mL; AUC(0-t) ([1]; both sexes, Charles River CD IGS, 150 mg/kg, Day 78, 150 mg/kg, Comb): 132 ng·h/mL; Cmax [1, 4]: 4.35 ng/mL; Tmax [1, 4]: 3 h; Cmax [1, 5]: 24.1 ng/mL; Tmax [1, 5]: 1 h; AUC(0-t) ([1]; female, CD IGS, 150 mg/kg, Day 1, 150 mg/kg, F): 106 ng·h/mL; Cmax [1, 6]: 42.4 ng/mL; Tmax [1, 6]: 2 h; Cmax [1, 7]: 9.99 ng/mL; Tmax [1, 7]: 3 h; AUC(0-t) ([1]; female, Charles River CD IGS, 30 mg/kg, Day 78, 30.0 mg/kg, F): 12.4 ng·h/mL; AUC(0-t) ([1]; female, Charles River CD IGS, 150 mg/kg, Day 78, 150 mg/kg, F): 124 ng·h/mL; AUC(0-t) ([1]; female, Charles River CD IGS, 500 mg/kg, Day 1, 500 mg/kg, F): 90.8 ng·h/mL; AUC(0-t) ([1]; female, Charles River CD IGS, 500 mg/kg, Day 78, 500 mg/kg, F): 470 ng·h/mL; Cmax [1, 8]: 3.95 ng/mL; Tmax [1, 8]: 3 h; Cmax [1, 9]: 22.2 ng/mL; Tmax [1, 9]: 2 h; Cmax [1, 10]: 62.9 ng/mL; Tmax [1, 10]: 3 h; AUC(0-t) ([1]; male, CD IGS, 30 mg/kg, Day 1, 30.0 mg/kg, M): 15.1 ng·h/mL; AUC(0-t) ([1]; male, CD IGS, 75 mg/kg, Day 1, 75.0 mg/kg, M): 6.37 ng·h/mL; AUC(0-t) ([1]; male, CD IGS, 150 mg/kg, Day 1, 150 mg/kg, M): 96.3 ng·h/mL; Cmax [1, 11]: 8.59 ng/mL; Tmax [1, 11]: 2 h; Cmax [1, 12]: 2.55 ng/mL; Tmax [1, 12]: 5 h; Cmax [1, 13]: 32.1 ng/mL; Tmax [1, 13]: 3 h; AUC(0-t) ([1]; male, Charles River CD IGS, 5 mg/kg, Day 78, 5.0 mg/kg, M): 11.1 ng·h/mL; AUC(0-t) ([1]; male, Charles River CD IGS, 30 mg/kg, Day 78, 30.0 mg/kg, M): 11.4 ng·h/mL; AUC(0-t) ([1]; male, Charles River CD IGS, 75 mg/kg, Day 78, 75.0 mg/kg, M): 61.4 ng·h/mL; AUC(0-t) ([1]; male, Charles River CD IGS, 150 mg/kg, Day 78, 150 mg/kg, M): 141 ng·h/mL; Cmax [1, 14]: 5.8 ng/mL; Tmax [1, 14]: 2 h; Cmax [1, 15]: 4.75 ng/mL; Tmax [1, 15]: 3 h; Cmax [1, 16]: 5.71 ng/mL; Tmax [1, 16]: 8 h; Cmax [1, 17]: 28.3 ng/mL; Tmax [1, 17]: 1 h; Time to significantly lowered SBA levels after dosing ([2]; 0.05 mg/kg orally 1 hour after feeding): 1 to 2 h; Serum bile acids, mean ([2]; 0.05 mg/kg p.o. at 60 min, 120 min): 6.5* μg/ml; Serum bile acids, mean ([2]; 0.05 mg/kg p.o. at 60 min, −30 min): 1.4 µg/mL; Serum bile acids, mean ([2]; 0.2 mg/kg p.o. at 60 min, 30 min): 9.1 µg/mL; Onset time to significant SBA lowering ([2]; 1 mg/kg vs ED50 dose 0.2 mg/kg): did not shorten the onset time; Threshold dose, dog SBA model ([2]; administered orally 1 hour after feeding): 0.05 mg/kg
